≈ marks a conversion by molar mass, not a printed value.
Experiments:
[1] = Water solubility of salts with hydrophilic amines; conditions: as salts with hydrophilic amines
physchem = conditions: water

| Compound | water solubility compared with the respective chlorin e6 salts [1] | solubility (physchem) [µg/mL] |
| --- | --- | --- |
| C=Cc1c(C)c2cc3nc(c(C(=O)O)c4[nH]c(cc5nc(cc1[nH]2)C(C)=C5CC)c(C)c4C(=O)O)[C@@H](CCC(=O)O)[C@@H]3C [(9), chlorin p6] | remarkably lower water solubility |  |
| C=Cc1c(C)c2cc3nc(c(CC(=O)O)c4[nH]c(cc5nc(cc1[nH]2)C(C)=C5CC)c(C)c4C(=O)O)[C@@H](CCC(=O)O)[C@@H]3C [(7), chlorin e6] |  | > 5000 |
| C=Cc1c(C)c2cc3nc(c4c5[nH]c(cc6nc(cc1[nH]2)C(C)=C6CC)c(C)c5C(=O)OC4=O)[C@@H](CCC(=O)O)[C@@H]3C [(8), purpurin 18] | remarkably lower water solubility |  |
| pheophorbide a [(4)] | remarkably lower water solubility |  |
| CCC1=C(C)c2cc3[nH]c(cc4nc(c5c6[nH]c(cc1n2)c(C)c6C(=O)C5)[C@@H](CCC(=O)O)[C@@H]4C)c(C)c3CC [(36), mesopyropheophorbide a] |  | 40 (≈ 74.5 µM) |

— patent US6777402B2, “Water-soluble porphyrin derivatives for photodynamic therapy, their use and manufacture” (CeramOptec Industries, Inc., priority 2001, dated 2004)
